The values below come from patent US10202353B2, “Therapeutic compounds” (Gilead Sciences, Inc., priority 2014, dated 2019).

A short description of series [1]: Test B: Cytotoxicity Assay. The series is classed as cell-based. To be noted: human, uninfected MT4 cells, same protocol as Test A. The protocol: (§1) For the antiviral assay, 40 μL of a concentration required to achieve a final effective 1× test concentration of 3-fold serially diluted compound in culture medium with 10% FBS was added to each well of a 384-well plate (10 concentrations) in quadruplicate. MT4 cells were next mixed with HIV-IIIb at an m.o.i of 0.003 for 1 hour, after which time 35 μL of virus/cell mixture (2000 cells) was immediately added to each well containing 40 μL of diluted compound. The plates were then incubated at 37° C. for 5 days. After 5 days of incubation, 25 μl of 2× concentrated CellTiter-Glo™ Reagent (catalog # G7571, Promega Biosciences, Inc., Madison, Wis.) was added to each well containing MT-4 cells. Cell lysis was carried out by incubating at room temperature for 10 min and then chemiluminescence was read. EC50 values were calculated as the compound concentration that caused a 50% decrease in luminescence signal, a measure of HIV-1 replication. Percent inhibition of virus-induced cell killing calculated from the dose response curve at 2 μM drug concentration is shown in the table below. Compound cytotoxicity and the corresponding CC50 values was determined using the same protocol as described in the antiviral assay (Test A) except that uninfected cells were used.

The subject of another series is HIV-IIIb. In words: Test A: Antiviral assay in MT4 Cells. To be noted: Human immunodeficiency virus 1, 120 h; 2 μM drug concentration; MT4 cells infected with HIV-IIIb, 5 days; calculated from dose response curve; values normalized to 100% where greater than 100; read-out: % Inhibition at 2 μM (percent inhibition of virus-induced cell killing). The series is classed as cell-based, HIV-1. Here is the method: as §1, with “below.” for “below. Compound cytotoxicity and the corresponding CC50 values was determined using the same protocol as described in the antiviral assay (Test A) except that uninfected cells were used.”

Where only a bound is given, the exact number is not on record here.

As a reminder, the CC50 is the concentration at which the toxic effect on the cells reaches its halfway point. What is called inhibition is how much of the control response was suppressed. `COc1ccc(N(C)C(=O)[C@H](Cc2cc(F)cc(F)c2)NC(=O)Cn2nc(C(F)(F)F)c3c2CCC(C)(O)C3)cc1` (stereo partly drawn) [Compound 29, (2S)-3-(3,5-difluorophenyl)-2-(2-(5-hydroxy-5-methyl-3-(trifluoromethyl)-4,5,6,7-tetrahydro-1H-indazol-1-yl)acetamido)-N-(4-methoxyphenyl)-N-methylpropanamide] yielded a CC50 at 5 days in series [1] of 32.1 µM. Besides, in the series with HIV-IIIb, the inhibition at 2 µM was 82%.

With `CN(C(=O)[C@H](Cc1cc(F)cc(F)c1)NC(=O)Cn1c(N)nc2c1c(=O)[nH]c(=O)n2C)c1ccc(Cl)cc1` [Compound 32, (S)-2-(2-(8-amino-3-methyl-2,6-dioxo-2,3-dihydro-1H-purin-7(6)-yl)acetamido)-N-(4-chlorophenyl)-3-(3,5-difluorophenyl)-N-methylpropanamide], the CC50 at 5 days in series [1] is more than 53 µM. Besides, in the series with HIV-IIIb, the inhibition at 2 µM was 39%.

For `CN(C(=O)[C@H](CC1CCC1)NC(=O)Cn1nc(C(F)(F)F)c2c1CCCC2)c1ccccc1` [Compound 14], the CC50 at 5 days in series [1] turned out to be 29 µM. In addition, the inhibition at 2 µM in the series on HIV-IIIb was 16%.

On to `COc1ccc(N(C)C(=O)[C@H](Cc2cc(F)cc(F)c2)NC(=O)Cn2nc(C(F)(F)F)c3c2C(C)CCC3)cc1` (stereo partly drawn) [Compound 26, (2S)-3-(3,5-difluorophenyl)-N-(4-methoxyphenyl)-N-methyl-2-(2-(7-methyl-3-(trifluoromethyl)-4,5,6,7-tetrahydro-1H-indazol-1-yl)acetamido)propanamide], for which the CC50 at 5 days in series [1] was 9.82 µM. For the same compound, the inhibition at 2 µM in the series with HIV-IIIb is 100%.

As for `CN(C(=O)[C@H](Cc1cc(F)cc(F)c1)NC(=O)Cn1nc(C(F)(F)F)c2c1CCCC2)c1ccc(F)cc1` [Compound 24, (S)-3-(3,5-difluorophenyl)-N-(4-fluorophenyl)-N-methyl-2-(2-(3-(trifluoromethyl)-4,5,6,7-tetrahydro-1H-indazol-1-yl)acetamido)propanamide], in series [1], the CC50 at 5 days was determined as 12.2 µM. Besides, the inhibition at 2 µM in the series on HIV-IIIb was 93%.

For `CN(C(=O)[C@H](Cc1cc(F)cc(F)c1)NC(=O)Cn1[nH]c(=O)c2c1CCCC2)c1ccc(Cl)cc1` [Compound 30], the CC50 at 5 days in series [1] is 22.2 µM. For the same compound, the inhibition at 2 µM in the series on HIV-IIIb was 100%.

Consider `CN(C(=O)[C@H](Cc1ccccc1)NC(=O)Cn1nc(C(F)(F)F)c2c1CCCC2)c1ccccc1` [Compound 1, (S)—N-methyl-N,3-diphenyl-2-(2-(3-(trifluoromethyl)-4,5,6,7-tetrahydro-1H-indazol-1-yl)acetamido)propanamide], for which half-maximal cytotoxicity in series [1] (CC50 at 5 days) was put at 23.5 µM. Moreover, the inhibition at 2 µM with HIV-IIIb is 98%.

With `CN(C(=O)[C@H](Cc1cccnc1)NC(=O)Cn1nc(C(F)(F)F)c2c1CCCC2)c1ccccc1` [Compound 6], the CC50 at 5 days in series [1] is more than 53 µM. Moreover, in the series on HIV-IIIb, the inhibition at 2 µM is 52%.

On to `CN(C(=O)[C@H](Cc1cc(F)cc(F)c1)NC(=O)Cc1cc(F)cc2c1OCOC2)c1ccc(Cl)cc1` [Compound 33, (S)—N-(4-chlorophenyl)-3-(3,5-difluorophenyl)-2-(2-(6-fluoro-4H-benzo[d][1,3]dioxin-8-yl)acetamido)-N-methylpropanamide], for which the CC50 at 5 days in series [1] came out at 18.4 µM. Further, the inhibition at 2 µM in the series with HIV-IIIb is 34%.

Regarding `CN(C(=O)[C@H](Cc1cccc(C(F)(F)F)c1)NC(=O)Cn1nc(C(F)(F)F)c2c1CCCC2)c1ccccc1` [Compound 21, (S)—N-methyl-N-phenyl-2-(2-(3-(trifluoromethyl)-4,5,6,7-tetrahydro-1H-indazol-1-yl)acetamido)-3-(3-(trifluoromethyl)phenyl)propanamide], the CC50 at 5 days in series [1] worked out at 11.3 µM. Moreover, the inhibition at 2 µM in the series with HIV-IIIb is 0%.
